One data set concerns the target T1, CYP2C19 (Homo sapiens, UniProt P33261).
T1 construct: purchased BD Gentest; host or cells: insect cells (baculovirus)
Briefly: 5-FU formation from FT enantiomers by cDNA-expressed CYP2C19 (kinetics, velocity, RAF contribution). In kind it is in vitro ADME. The settings on record: for CYP contribution: CYP2C19, RAF method, 30 μmol/L. The protocol: (§1) (pooled preparations from 20 donors; Kansas City, KS). […] Insect microsomes expressing only NADPH-P450 oxidoreductase and cytochrome b5 were also used as control. These enzymes were stored at −80°C until use.
(§2) 5-FU formed from FT was subjected to extensive metabolism by dihydropyrimidine dehydrogenase (DPD) contaminating human hepatic preparations. Therefore, a potent DPD inhibitor, CDHP, was always added to avoid the unexpected loss of 5-FU (Ikeda et al. [2000]; Yamamiya et al. [2010]). Incubation mixture for hepatic microsomal metabolism contained FT, microsomes (1 mg protein/mL), 0.1 mmol/L CDHP, and an NADPH-generating system consisting of 1.3 mmol/L β-NADP^+, 3.3 mmol/L glucose-6-phosphate, 3.3 mmol/L magnesium chloride, and 0.4 units glucose-6-phosphate dehydrogenase in 100 mmol/L Tris (pH 7.4). Metabolic reaction by S9 and cytosol (each 2 mg protein/mL) was carried out in 100 mmol/L phosphate (pH 7.4) because TPase requires phosphate ions for catalyzing the reaction. In some cases, insect microsomes expressing recombinant CYP isoforms (20 pmol/mL) were added to the incubation mixtures in either 50, 100 mmol/L phosphate (pH 7.4) or 100 mmol/L Tris (pH 7.4), depending on supplier's recommendation. […] The reaction for the assay of FT metabolism was initiated by adding the substrate, following preincubation for 5 min at 37°C. […] The incubation times of microsomes, cytosol, and S9 were 15, 15, and 30 min, respectively. After centrifugation, the supernatant was collected and stored at −80°C until the determination of 5-FU. Because a small portion of FT is nonenzymatically converted to 5-FU, the content of 5-FU spontaneously formed was subtracted from total yield obtained after incubation to correct the activity. The spontaneous degradation of FT to 5-FU was evaluated using enzymes inactivated by heating them at 100°C for 5 min.
(§3) Concentration of 5-FU was determined using a LC/MS/MS system. […] The mobile phase consisted of 10 mmol/L ammonium acetate/acetonitrile 10:90 (v/v). The MS/MS analysis was performed in negative ionization mode under multiple reaction monitoring (MRM) mode, using mass transitions, m/z 128.6/41.8 for 5-FU and m/z 130.6/42.8 for ^15N2-5-FU, an internal standard (IS). […] For quantification of 5-FU, the calibration curves were linear over the range 2–1000 ng/mL.
(§4) In determining kinetic parameters, FT concentration ranged from 0.03 to 10 mmol/L. All reactions were performed in a linear range of 5-FU formation with respect to protein or CYP concentrations and incubation time. Eadie–Hofstee plot analysis was used to characterize enzyme kinetics in which kinetic parameters were estimated by fitting the data to the following equations (1) or (2): [drawing 1] (1) [drawing 2] (2) where V is 5-FU formation rate, S is FT concentration in the incubation mixture, Km1 and Km2 are affinity constants for high- and low-affinity components, respectively, and Vmax1 and Vmax2 are maximum velocities for high- and low-affinity components, respectively.
(§5) The contribution of CYPn to the metabolism of R- and S-FT at their concentration of 30 μmol/L was subsequently calculated using equation (4). [drawing 4] (4) VCYPn = 5-FU formation rate in cDNA-expressed CYPn.

The target of a further data set is T2, CYP2E1 (Homo sapiens, UniProt P05181).
T2 construct: purchased BD Gentest; host or cells: insect cells (baculovirus)
Briefly: 5-FU formation from FT enantiomers by cDNA-expressed CYP2E1 (kinetics, velocity, RAF contribution). In kind it is in vitro ADME. The settings on record: for CYP contribution: CYP2E1, RAF method, 30 μmol/L; for CLint / Km / Vmax: cDNA-expressed CYP2E1. As to the method: as §1, §2, §3, §4, §5

Where only a bound is given, the exact number is not on record here.

Experimental findings from article PMC4184574, “Enantioselectivity in the cytochrome P450-dependent conversion of tegafur to 5-fluorouracil in human liver microsomes” (Pharmacology Research & Perspectives, 2013) are described below.

The term Km denotes the concentration of substrate that gives half-maximal velocity.

T2 sequence (P05181 whole entry): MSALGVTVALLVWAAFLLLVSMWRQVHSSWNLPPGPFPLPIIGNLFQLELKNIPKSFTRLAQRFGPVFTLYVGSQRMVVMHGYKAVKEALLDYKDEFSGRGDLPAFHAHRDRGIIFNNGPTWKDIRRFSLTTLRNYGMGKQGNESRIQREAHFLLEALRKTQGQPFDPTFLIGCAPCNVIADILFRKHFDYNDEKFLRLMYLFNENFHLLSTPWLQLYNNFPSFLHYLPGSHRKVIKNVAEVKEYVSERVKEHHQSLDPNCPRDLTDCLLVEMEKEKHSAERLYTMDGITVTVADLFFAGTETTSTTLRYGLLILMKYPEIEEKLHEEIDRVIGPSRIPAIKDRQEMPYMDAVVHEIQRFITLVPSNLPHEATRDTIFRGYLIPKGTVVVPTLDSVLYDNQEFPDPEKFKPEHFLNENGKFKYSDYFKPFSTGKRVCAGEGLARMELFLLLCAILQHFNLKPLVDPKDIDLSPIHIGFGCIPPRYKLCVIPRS
T1 sequence (P33261 whole entry): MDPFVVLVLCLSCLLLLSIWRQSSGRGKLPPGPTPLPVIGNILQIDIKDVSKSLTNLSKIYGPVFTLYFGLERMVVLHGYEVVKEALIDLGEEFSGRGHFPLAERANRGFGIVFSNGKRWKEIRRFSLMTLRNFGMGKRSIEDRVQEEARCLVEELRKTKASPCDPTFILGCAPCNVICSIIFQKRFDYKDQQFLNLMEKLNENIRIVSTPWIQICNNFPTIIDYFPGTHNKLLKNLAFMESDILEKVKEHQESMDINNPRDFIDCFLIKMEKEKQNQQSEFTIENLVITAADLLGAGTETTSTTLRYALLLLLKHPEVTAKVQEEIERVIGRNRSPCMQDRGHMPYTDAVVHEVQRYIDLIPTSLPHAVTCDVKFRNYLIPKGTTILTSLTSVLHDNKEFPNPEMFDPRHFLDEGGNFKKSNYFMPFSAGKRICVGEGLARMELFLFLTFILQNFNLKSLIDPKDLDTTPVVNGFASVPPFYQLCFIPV

At CYP2C19, `O=c1[nH]c(=O)n([C@H]2CCCO2)cc1F` [R-FT] gave a CYP contribution of 0.59%. On CYP2C19 (cDNA-expressed CYP2C19), the Michaelis-Menten constant (Km) was greater than 10 mM. In addition, at CYP2E1, the CYP contribution is reported as 4.3%, the CLint is 2.3 nL min^−1 pmol^−1 CYP, the Km was 3.6 ± 0.3 mM and the Vmax was 8.4 ± 0.6 pmol min^−1 pmol^−1 CYP.

As for `O=c1[nH]c(=O)n([C@@H]2CCCO2)cc1F` [S-FT], the CYP contribution at CYP2C19 came out at 3.9%. Also, at CYP2C19 (cDNA-expressed CYP2C19), the CLint is 0.90 nL min^−1 pmol^−1 CYP, the Km was 6.2 ± 0.3 mM and the Vmax is on record as 5.5 ± 0.2 pmol min^−1 pmol^−1 CYP. Further, on CYP2E1, the CYP contribution stood at 7.0%, the CLint was 1.3 nL min^−1 pmol^−1 CYP, the Km was 3.7 ± 0.2 mM and the Vmax is 4.7 ± 0.2 pmol min^−1 pmol^−1 CYP.
